Laboratory results published in patent EP0825877B1, “COMPOSITION FOR PREVENTION OF POSTERIOR CAPSULE OPACIFICATION” (Pfizer Health AB, priority 1995, dated 1996).

Key:
[1] = Diffusion experiment in a Sundelöf cell; type: physicochemical; settings: 100 µg/ml of Doxorubicin; Sundelöfcell; hyaluronate 10 mg/ml
Protocol: Doxorubicin is slowly released from the hyaluronate-doxorubicine solution. […] The diffusion of Doxorubicine out of the hyaluronate solution is more than three times slower than the diffusion of doxorubicine in water. In a diffusion experiment using 100 µg/ml of Doxorubicin in a Sundelöfcell (Sundelöf L-O, 1982, Anal. Biochem, 127,282-286, Laurent T C, Preston B N Sundelöf L-O Van Damme M P, 1982, Anal. Biochem, 127, 287-292), it took 20 hours for 20 % of doxorubicin in water to diffuse into the upper compartment as compared to 70 hours for the doxorubicine in hyaluronate (10 mg/ml).

[2] = system: secondary cataract formation; assay: In vivo study in rabbits: secondary cataract weighed two months after phacoemulsification, IOL implantation and doxorubicin injection; design: species or system Albino rabbits; settings: 1 µg doxorubicin; 100 µl into the capsular bag behind the IOL; two months postoperatively
Protocol: Albino rabbits were used. In both eyes the crystalline lens was removed by phacoemusification. In both eyes a PMMA IOL was implanted into the capsular bag. In one eye 100 µl of the doxorubicin-Healon slution was injected into the capsular bag behind the IOL. The fellow eye received 100 µ 1 Healon. Two months postoperatively the animals were killed, and the secondary cataracts were removed and weighed to the neariest mg. In one group the doxorubicin was injected dissolved in ta buffer solution instead of Healon. This in order to compare the efficacy when doxorubicin was dissolved in either Healon or buffer. There was a dose dependent inhibitory effect of doxorubicin dissolved in Healon. The doses of 3, 1 and 0.3 µg all gave a significant decrease of the secondary cataract formation. When comparing the dosage 1 µg injected in either Healon of buffer, there was a significant better inibitory effect when doxorubicin was delivered in Healon.
The amount of secondary cataract tissue was typically: […]

[3] = system: secondary cataract formation; assay: In vivo secondary cataract formation (PCO wet mass), 5-FU single dose versus slow release; design: species or system rabbits; settings: for inhibition of PCO: PCO measured as wet mass
Protocol: 5 mg of 5-FU was given to rabbits either as a single dose (instant release) or as a slow release formulation prepared according to Example 3 where 5 mg 5-FU was released over 3 or 12 days in vivo. The amount of secondary cataract formation in the rabbits were evaluated according to Lundgren at al (Lundgren B, Jonsson E and Rolfsen W, 1992, Acta Ophthalmol. Suppl 205:25-28). The single saline dose of 5-FU reduced the secondary cataract formation by 50% while the SR-formulation (SR-3 and SR-10) reduced the secondary cataract formation by 70 and 100% respectively.

Structure (SMILES) | time for 20 % of doxorubicin to diffuse into the upper compartment [1] [h] | amount of secondary cataract tissue [2] [mg] | inhibition of PCO ([3]; 5 mg administered as a single dose) [%] | inhibition of PCO ([3]; 5 mg delivered over 2-3 days) [%] | inhibition of PCO ([3]; 5 mg delivered over 10-12 days) [%] | reduction of secondary cataract formation ([3]; 5 mg of 5-FU, single saline dose or slow release over 3 or 12 days) [%]
COc1cccc2c1C(=O)c1c(O)c3c(c(O)c1C2=O)C[C@@](O)(C(=O)CO)C[C@@H]3O[C@H]1C[C@H](N)[C@H](O)[C@H](C)O1 [doxorubicin in buffer, doxorubicin] | 20 | 65 ± 15 | – | – | – | –
O=c1[nH]cc(F)c(=O)[nH]1 [5-FU, 5-fluoro-uracil] | – | – | 50 | 70 | > 90 | 50
